# Data taken from PMC4550478, “Metronidazole-triazole conjugates: Activity against Clostridium difficile and parasites” (European Journal of Medicinal Chemistry, 2015).
# Experiments:
# [1] = system: C. difficile NAP1/027 CD26A54_R; assay: Metronidazole E-test on BAKHS, C. difficile CD26A54_R; assay type: cell-based, Clostridium difficile; settings: BAKHS agar; for MIC: Clostridioides difficile
# Method: Mid-log phase (OD600 =0.5- 0.6) culture was diluted to a 0.5 McFarland standard (OD600~ 0.1) in prereduced broth. The diluted culture was inoculated onto duplicate BAKHS agar plate using a cotton tip applicator. The inoculum was allowed to dry before the Metronidazole E-test strip (Metronidazole MZH 256-S30, bioMérieux Australia) was placed in duplicate on the surface of the agar. The agar plate was inverted and incubated for up to 96 hr. The MIC was read as the point at which the elliptical zone of inhibition intercepted the E-test strip at 24, 48 and 96 hr.
# [2] = system: ESKAPE bacteria: S. aureus MRSA (ATCC 43300), E. coli (ATCC 25922), K. pneumoniae (ATCC 700603), A. baumannii (ATCC 19606) and P. aeruginosa (ATCC 27853); assay: MIC against ESKAPE pathogens, aerobic; assay type: cell-based; settings: aerobic conditions, single concentration screen, n = 3
# Method: All compounds were tested for activity against a set of anaerobic C. difficile bacteria (630 ATCC BAA-1382, NAP1/027 M7404, NAP1/027 ATCC BAA-1803, VPI10463 ATCC 43255, CD26A54_S and CD26A54_R) and representative ESKAPE pathogens S. aureus (MRSA ATCC 43300), E. coli (ATCC 25922), K. pneumoniae (ATCC 700603), A. baumannii (ATCC 19606) and P. aeruginosa (ATCC 27853) using a standard broth microdilution assay. Selected compounds were tested for activity against H. pylori strains (26695, and clinical isolates MtzS 13/25, MtzR 98/285 and MtzR 13/61) using agar plate dilution, and for antimicrobial activity against twelve Gram-positive bacterial strains: Enterococcus faecalis (VanA clinical isolate), Enterococcus faecium (MDR VanA ATCC 51559), Streptococcus pneumoniae (MDR ATCC 700677), S. aureus (MRSA ATCC 43300, MRSA clinical isolate, MRSA/DRSA clinical isolate, GISA NARSA NRS 1, GISA NARSA NRS 17, VRSA NARSA VRS1, VRSA NARSA VRS4 and VRSA NARSA VRS10) using broth microdilution. C. difficile strains were grown at 37 °C in a COY anaerobic chamber (5% H2, 10% CO2, 85% N2). H. pylori strains were grown at 37 °C under a microaerobic atmosphere (5% O2, 10% CO2). All facultative anaerobic bacteria were grown at 37 °C with normal atmospheric oxygen levels. […] Positive growth control of bacteria and DMSO as well as a negative control of only media were included for every plate. Full assay details are provided in the supplementary information.
# MICs were determined by a two-fold serial broth micro dilution according to the recommendation of CLSI standards with an inoculum of 5 × 10^5 CFU/mL^4 The compounds along with standard antibiotics were serially diluted twofold across the wells of 96-well non-binding surface plates (NBS, Corning). […] Gram-positive and Gram-negative bacteria were cultured in Mueller Hinton broth (MHB) (Bacto laboratories, Cat. no. 211443) at 37 °C overnight. A sample of each culture was then diluted 40-fold in fresh MHB broth and incubated at 37 °C for 2-3 h. The resultant mid-log phase cultures were diluted to the final concentration of 5 × 10^5 CFU/mL, then 50 μL was added to each well of the compound containing 96-well plates. All the plates were covered and incubated at 37 °C for 24 h.
# [3] = system: 8 additional drug resistant S. aureus strains, vancomycin resistant E. faecalis, vancomycin resistant E. faecium and multidrug resistant S. pneumoniae; assay: MIC broth microdilution, drug resistant Gram-positive panel; assay type: cell-based; settings: all strains of the panel
# Method: All compounds were tested for activity against a set of anaerobic C. difficile bacteria (630 ATCC BAA-1382, NAP1/027 M7404, NAP1/027 ATCC BAA-1803, VPI10463 ATCC 43255, CD26A54_S and CD26A54_R) and representative ESKAPE pathogens S. aureus (MRSA ATCC 43300), E. coli (ATCC 25922), K. pneumoniae (ATCC 700603), A. baumannii (ATCC 19606) and P. aeruginosa (ATCC 27853) using a standard broth microdilution assay. Selected compounds were tested for activity against H. pylori strains (26695, and clinical isolates MtzS 13/25, MtzR 98/285 and MtzR 13/61) using agar plate dilution, and for antimicrobial activity against […] Gram-positive bacterial strains: Enterococcus faecalis (VanA clinical isolate), Enterococcus faecium (MDR VanA ATCC 51559), Streptococcus pneumoniae (MDR ATCC 700677), S. aureus (MRSA ATCC 43300, MRSA clinical isolate, MRSA/DRSA clinical isolate, GISA NARSA NRS 1, GISA NARSA NRS 17, VRSA NARSA VRS1, VRSA NARSA VRS4 and VRSA NARSA VRS10) using broth microdilution. C. difficile strains were grown at 37 °C in a COY anaerobic chamber (5% H2, 10% CO2, 85% N2). H. pylori strains were grown at 37 °C under a microaerobic atmosphere (5% O2, 10% CO2). All facultative anaerobic bacteria were grown at 37 °C with normal atmospheric oxygen levels. All experiments were performed in duplicate with metronidazole, vancomycin, linezolid or colistin as positive controls for relevant strains (see Table 1). Positive growth control of bacteria and DMSO as well as a negative control of only media were included for every plate. Full assay details are provided in the supplementary information.
# MICs were determined by a two-fold serial broth micro dilution according to the recommendation of CLSI standards with an inoculum of 5 × 10^5 CFU/mL^4 The compounds along with standard antibiotics were serially diluted twofold across the wells of 96-well non-binding surface plates (NBS, Corning). Standards ranged from 64 to 0.03 μg/mL, and the compounds from 128 to 0.06 μg/mL with final volumes of 50 μL per well. Gram-positive and Gram-negative bacteria were cultured in Mueller Hinton broth (MHB) (Bacto laboratories, Cat. no. 211443) at 37 °C overnight. A sample of each culture was then diluted 40-fold in fresh MHB broth and incubated at 37 °C for 2-3 h. The resultant mid-log phase cultures were diluted to the final concentration of 5 × 10^5 CFU/mL, then 50 μL was added to each well of the compound containing 96-well plates. All the plates were covered and incubated at 37 °C for 24 h.
SMILES,Metronidazole E-test MIC CD26A54_R ([1]; 48 hrs) [µg/mL],MIC ([1]; 24 hrs) [µg/mL],MIC ([1]; 48 hrs) [µg/mL],MIC ([1]; 96 hrs) [µg/mL],MIC ESKAPE bacteria [2] [µg/mL],MIC against panel of drug resistant Gram-positive strains [3] [µg/mL]
"Cc1ncc([N+](=O)[O-])n1CCO [Compound 1, metronidazole]",48,32,48,48,>32,–
"Cc1ncc([N+](=O)[O-])n1CCN=[N+]=[N-] [Compound 3, 1-(2-azidoethyl)-2-methyl-5-nitro-1H-imidazole]",–,–,–,–,>32,> 64
